Data on 15 compounds can be found in BindingDB's records for doi:10.1016/j.bmcl.2004.08.039 (Glaxosmithkline, 2004).

This assay deals with T1, Dimer of Gag-Pol polyprotein [501-599,Q508K,L534I,L564I,C568A,C596A] (Human immunodeficiency virus 1, UniProt P03367, C568A/C596A/L534I/L564I/Q508K).
T1 construct: 501-599
The experiment in a line: Protease Inhibition Assay. Conditions: pH 6.4; 25 °C. As to the method: The Ki values were determined using fluorogenic substrate, 2-(aminobenzoyl)-Thr-Ile-Nle-Phe(p-NO2)-Gln-ArgNH2. A standard curve relating changes in fluorescent intensity to changes in concentration of product was used to convert fluorescent changes into molar velocities. The amount of cleavage was determined by HPLC.

By Ki is commonly meant the dissociation constant of the complex between target and ligand, obtained from inhibition or displacement. A higher Ki goes with weaker binding. The compound `N#Cc1cccc(C[C@H]2C[C@H](Cc3ccccc3)N(C[C@@H](O)C[C@@H](Cc3ccccc3)C(=O)N[C@H]3c4ccccc4C[C@H]3O)C2=O)c1` [(2R,4S)-2-benzyl-5-[(3S,5R)-5-benzyl-3-[(3-cyanophenyl)methyl]-2-oxopyrrolidin-1-yl]-4-hydroxy-N-[(1S,2R)-2-hydroxy-2,3-dihydro-1H-inden-1-yl]pentanamide] showed a Ki of 0.05 nM.
The figure for `O=C(NCCN1CCOCC1)c1cccc(C[C@H]2C[C@H](Cc3ccccc3)N(C[C@@H](O)C[C@@H](Cc3ccccc3)C(=O)N[C@H]3c4ccccc4C[C@H]3O)C2=O)c1` [3-{[(3S,5R)-5-benzyl-1-[(2S,4R)-4-benzyl-2-hydroxy-4-{[(1S,2R)-2-hydroxy-2,3-dihydro-1H-inden-1-yl]carbamoyl}butyl]-2-oxopyrrolidin-3-yl]methyl}-N-[2-(morpholin-4-yl)ethyl]benzamide] is 0.15 nM; for `COC(=O)c1cccc(C[C@H]2C[C@H](Cc3ccccc3)N(C[C@@H](O)C[C@@H](Cc3ccccc3)C(=O)N[C@H]3c4ccccc4C[C@H]3O)C2=O)c1` [methyl 3-{[(3S,5R)-5-benzyl-1-[(2S,4R)-4-benzyl-2-hydroxy-4-{[(1S,2R)-2-hydroxy-2,3-dihydro-1H-inden-1-yl]carbamoyl}butyl]-2-oxopyrrolidin-3-yl]methyl}benzoate] it is 0.42 nM.
The figure for `O=C(N[C@H]1c2ccccc2C[C@H]1O)[C@H](Cc1ccccc1)C[C@H](O)CN1C(=O)[C@@H](Cc2cccc(O)c2)C[C@@H]1Cc1ccccc1` [(2R,4S)-2-benzyl-5-[(3S,5R)-5-benzyl-3-[(3-hydroxyphenyl)methyl]-2-oxopyrrolidin-1-yl]-4-hydroxy-N-[(1S,2R)-2-hydroxy-2,3-dihydro-1H-inden-1-yl]pentanamide] is 0.05 nM; for `O=C(N[C@H]1c2ccccc2C[C@H]1O)[C@H](Cc1ccccc1)C[C@H](O)CN1C(=O)C(Cc2ccncc2)C[C@@H]1Cc1ccccc1` (stereo partly drawn) [(2R,4S)-2-benzyl-5-[(5R)-5-benzyl-2-oxo-3-(pyridin-4-ylmethyl)pyrrolidin-1-yl]-4-hydroxy-N-[(1S,2R)-2-hydroxy-2,3-dihydro-1H-inden-1-yl]pentanamide] it is 0.31 nM; for `N#CCOc1cccc(C[C@H]2C[C@H](Cc3ccccc3)N(C[C@@H](O)C[C@@H](Cc3ccccc3)C(=O)N[C@H]3c4ccccc4C[C@H]3O)C2=O)c1` [(2R,4S)-2-benzyl-5-[(3S,5R)-5-benzyl-3-{[3-(cyanomethoxy)phenyl]methyl}-2-oxopyrrolidin-1-yl]-4-hydroxy-N-[(1S,2R)-2-hydroxy-2,3-dihydro-1H-inden-1-yl]pentanamide] it is 0.08 nM.
Take `O=C(NCCOCCO)c1cccc(C[C@H]2C[C@H](Cc3ccccc3)N(C[C@@H](O)C[C@@H](Cc3ccccc3)C(=O)N[C@H]3c4ccccc4C[C@H]3O)C2=O)c1` [3-{[(3S,5R)-5-benzyl-1-[(2S,4R)-4-benzyl-2-hydroxy-4-{[(1S,2R)-2-hydroxy-2,3-dihydro-1H-inden-1-yl]carbamoyl}butyl]-2-oxopyrrolidin-3-yl]methyl}-N-[2-(2-hydroxyethoxy)ethyl]benzamide]: the affinity, expressed as Ki, was 0.24 nM.
With `N#Cc1ccc(CC2C[C@H](Cc3ccccc3)N(C[C@@H](O)C[C@@H](Cc3ccccc3)C(=O)N[C@H]3c4ccccc4C[C@H]3O)C2=O)cc1` (stereo partly drawn) [(2R,4S)-2-benzyl-5-[(5R)-5-benzyl-3-[(4-cyanophenyl)methyl]-2-oxopyrrolidin-1-yl]-4-hydroxy-N-[(1S,2R)-2-hydroxy-2,3-dihydro-1H-inden-1-yl]pentanamide], the Ki turned out to be 0.34 nM.
The figure for `NC(=O)c1cccc(C[C@H]2C[C@H](Cc3ccccc3)N(C[C@@H](O)C[C@@H](Cc3ccc(OCCO)cc3)C(=O)N[C@H]3c4ccccc4C[C@H]3O)C2=O)c1` [3-{[(3S,5R)-5-benzyl-1-[(2S,4R)-2-hydroxy-4-{[(1S,2R)-2-hydroxy-2,3-dihydro-1H-inden-1-yl]carbamoyl}-4-{[4-(2-hydroxyethoxy)phenyl]methyl}butyl]-2-oxopyrrolidin-3-yl]methyl}benzamide] is 0.05 nM.
As for `Nc1cccc(C[C@H]2C[C@H](Cc3ccccc3)N(C[C@@H](O)C[C@@H](Cc3ccccc3)C(=O)N[C@H]3c4ccccc4C[C@H]3O)C2=O)c1` [(2R,4S)-5-[(3S,5R)-3-[(3-aminophenyl)methyl]-5-benzyl-2-oxopyrrolidin-1-yl]-2-benzyl-4-hydroxy-N-[(1S,2R)-2-hydroxy-2,3-dihydro-1H-inden-1-yl]pentanamide], the figure is 0.1 nM.
The figure for `CCOC(=O)CNC(=O)Nc1cccc(C[C@H]2C[C@H](Cc3ccccc3)N(C[C@@H](O)C[C@@H](Cc3ccccc3)C(=O)N[C@H]3c4ccccc4C[C@H]3O)C2=O)c1` [ethyl 2-{[(3-{[(3S,5R)-5-benzyl-1-[(2S,4R)-4-benzyl-2-hydroxy-4-{[(1S,2R)-2-hydroxy-2,3-dihydro-1H-inden-1-yl]carbamoyl}butyl]-2-oxopyrrolidin-3-yl]methyl}phenyl)carbamoyl]amino}acetate] is 0.1 nM.
Consider `Nc1ccc(CC2C[C@H](Cc3ccccc3)N(C[C@@H](O)C[C@@H](Cc3ccccc3)C(=O)N[C@H]3c4ccccc4C[C@H]3O)C2=O)cc1` (stereo partly drawn) [(2R,4S)-5-[(5R)-3-[(4-aminophenyl)methyl]-5-benzyl-2-oxopyrrolidin-1-yl]-2-benzyl-4-hydroxy-N-[(1S,2R)-2-hydroxy-2,3-dihydro-1H-inden-1-yl]pentanamide], for which the affinity corresponds to a Ki of 2.3 nM.
As for `CCNC(=O)Nc1cccc(C[C@H]2C[C@H](Cc3ccccc3)N(C[C@@H](O)C[C@@H](Cc3ccccc3)C(=O)N[C@H]3c4ccccc4C[C@H]3O)C2=O)c1` [(2R,4S)-2-benzyl-5-[(3S,5R)-5-benzyl-3-({3-[(ethylcarbamoyl)amino]phenyl}methyl)-2-oxopyrrolidin-1-yl]-4-hydroxy-N-[(1S,2R)-2-hydroxy-2,3-dihydro-1H-inden-1-yl]pentanamide], the figure is 0.2 nM.
The compound `NC(=O)c1cccc(C[C@H]2C[C@H](Cc3ccccc3)N(C[C@@H](O)C[C@@H](Cc3ccccc3)C(=O)N[C@H]3c4ccccc4C[C@H]3O)C2=O)c1` [3-{[(3S,5R)-5-benzyl-1-[(2S,4R)-4-benzyl-2-hydroxy-4-{[(1S,2R)-2-hydroxy-2,3-dihydro-1H-inden-1-yl]carbamoyl}butyl]-2-oxopyrrolidin-3-yl]methyl}benzamide] displayed a Ki of 0.1 nM. Compared with the last compound, the Ki is about 2-fold lower.
The figure for `NC(=O)COc1cccc(C[C@H]2C[C@H](Cc3ccccc3)N(C[C@@H](O)C[C@@H](Cc3ccccc3)C(=O)N[C@H]3c4ccccc4C[C@H]3O)C2=O)c1` [(2R,4S)-2-benzyl-5-[(3S,5R)-5-benzyl-3-{[3-(carbamoylmethoxy)phenyl]methyl}-2-oxopyrrolidin-1-yl]-4-hydroxy-N-[(1S,2R)-2-hydroxy-2,3-dihydro-1H-inden-1-yl]pentanamide] is 0.09 nM.
